From PMC8887130 (Genes & Development, 2022) come the findings set out here.

The term EC50 denotes the midpoint of the concentration-response curve. Read a high EC50 as weaker potency.

Experiment [1] addresses T1, CF II (hClp1-hPcf11) (Homo sapiens, UniProt Q92989). Put plainly: […]'-dATP titration in reconstituted pre-mRNA cleavage, half-maximal activation. In kind it is biochemical.
For experiment [2], the target named is T1, CF II (hClp1-hPcf11). Put plainly: biochemical.
Experiment [3] has as its target CF II (hClp1-hPcf11) (Homo sapiens, UniProt Q92989, E22Q). Put plainly: biochemical.
Experiment [4] addresses CF II (hClp1-hPcf11) (Homo sapiens, UniProt Q92989, R288A/R293K). Put plainly: biochemical.
Experiment [5] addresses CF II (hClp1-hPcf11) (Homo sapiens, UniProt Q92989, E22A). Put plainly: biochemical.

T1 sequence (Q92989 whole entry): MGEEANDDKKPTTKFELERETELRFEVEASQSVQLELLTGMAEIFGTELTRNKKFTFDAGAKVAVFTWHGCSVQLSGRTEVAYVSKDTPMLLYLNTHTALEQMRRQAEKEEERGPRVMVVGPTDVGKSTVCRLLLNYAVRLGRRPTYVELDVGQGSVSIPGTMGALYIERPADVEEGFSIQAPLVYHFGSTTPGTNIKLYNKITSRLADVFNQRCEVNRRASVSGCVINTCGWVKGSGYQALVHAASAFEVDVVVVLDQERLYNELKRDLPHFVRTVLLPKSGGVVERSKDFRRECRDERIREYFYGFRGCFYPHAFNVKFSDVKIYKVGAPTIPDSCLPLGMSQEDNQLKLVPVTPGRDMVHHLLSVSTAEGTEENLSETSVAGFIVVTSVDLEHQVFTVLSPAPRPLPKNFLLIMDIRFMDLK
T1 sequence (O94913 2-1555 partner): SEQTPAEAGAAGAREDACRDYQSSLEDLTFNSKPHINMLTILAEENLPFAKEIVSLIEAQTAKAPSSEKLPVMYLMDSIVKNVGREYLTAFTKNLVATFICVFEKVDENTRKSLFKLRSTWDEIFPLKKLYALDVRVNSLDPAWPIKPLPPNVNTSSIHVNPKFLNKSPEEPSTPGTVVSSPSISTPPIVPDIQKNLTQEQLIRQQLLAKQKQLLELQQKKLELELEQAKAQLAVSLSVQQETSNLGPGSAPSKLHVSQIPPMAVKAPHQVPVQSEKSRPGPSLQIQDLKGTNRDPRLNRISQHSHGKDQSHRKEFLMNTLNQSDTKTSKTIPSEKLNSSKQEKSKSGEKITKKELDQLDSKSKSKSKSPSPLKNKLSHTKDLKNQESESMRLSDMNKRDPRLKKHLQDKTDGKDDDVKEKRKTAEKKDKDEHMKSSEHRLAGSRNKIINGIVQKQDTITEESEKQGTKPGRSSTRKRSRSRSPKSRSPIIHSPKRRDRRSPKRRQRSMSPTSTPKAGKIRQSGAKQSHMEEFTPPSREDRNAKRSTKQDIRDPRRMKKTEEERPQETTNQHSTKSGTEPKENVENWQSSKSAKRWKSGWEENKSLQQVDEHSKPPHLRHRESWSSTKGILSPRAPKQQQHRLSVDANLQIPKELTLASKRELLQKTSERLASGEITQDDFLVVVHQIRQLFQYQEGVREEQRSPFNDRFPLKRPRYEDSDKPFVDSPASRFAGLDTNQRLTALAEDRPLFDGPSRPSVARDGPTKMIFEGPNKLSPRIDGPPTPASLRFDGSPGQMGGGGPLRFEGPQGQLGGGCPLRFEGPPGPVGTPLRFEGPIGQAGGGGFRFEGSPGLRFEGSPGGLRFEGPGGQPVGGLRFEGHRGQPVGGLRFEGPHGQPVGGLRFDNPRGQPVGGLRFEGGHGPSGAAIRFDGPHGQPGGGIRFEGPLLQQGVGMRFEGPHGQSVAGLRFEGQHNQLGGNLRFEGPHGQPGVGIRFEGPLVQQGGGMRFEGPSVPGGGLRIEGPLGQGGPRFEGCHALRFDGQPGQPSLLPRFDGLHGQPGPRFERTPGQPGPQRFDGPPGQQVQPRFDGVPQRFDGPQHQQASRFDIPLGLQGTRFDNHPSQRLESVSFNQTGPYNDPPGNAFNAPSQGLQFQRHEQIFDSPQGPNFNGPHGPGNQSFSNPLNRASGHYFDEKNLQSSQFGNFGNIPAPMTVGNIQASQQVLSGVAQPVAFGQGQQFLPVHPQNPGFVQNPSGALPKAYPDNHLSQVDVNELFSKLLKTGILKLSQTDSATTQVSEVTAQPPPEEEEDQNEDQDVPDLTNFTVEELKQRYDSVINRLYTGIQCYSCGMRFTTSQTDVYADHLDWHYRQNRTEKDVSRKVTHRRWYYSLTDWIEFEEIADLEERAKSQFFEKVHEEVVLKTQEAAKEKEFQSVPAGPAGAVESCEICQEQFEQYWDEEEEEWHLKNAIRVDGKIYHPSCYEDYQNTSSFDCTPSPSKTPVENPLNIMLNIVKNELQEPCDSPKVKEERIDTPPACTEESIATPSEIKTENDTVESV
Sequence of CF II (hClp1-hPcf11) (Homo sapiens, UniProt Q92989, R288A/R293K) (Q92989 whole entry R288A/R293K): as the sequence (Q92989 whole entry) above, with R288A, R293K counted along it
Sequence of CF II (hClp1-hPcf11) (Homo sapiens, UniProt Q92989, R288A/R293K) (O94913 2-1555 partner): as the sequence (O94913 2-1555 partner) above
Sequence of CF II (hClp1-hPcf11) (Homo sapiens, UniProt Q92989, E22A) (Q92989 whole entry E22A): as the sequence (Q92989 whole entry) above, with E22A counted along it
Sequence of CF II (hClp1-hPcf11) (Homo sapiens, UniProt Q92989, E22A) (O94913 2-1555 partner): as the sequence (O94913 2-1555 partner) above
Sequence of CF II (hClp1-hPcf11) (Homo sapiens, UniProt Q92989, E22Q) (Q92989 whole entry E22Q): as the sequence (Q92989 whole entry) above, with E22Q counted along it
Sequence of CF II (hClp1-hPcf11) (Homo sapiens, UniProt Q92989, E22Q) (O94913 2-1555 partner): as the sequence (O94913 2-1555 partner) above

Turning to `Nc1ncnc2c1ncn2[C@@H]1O[C@H](COP(=O)(O)OP(=O)(O)OP(=O)(O)O)C[C@H]1O` [3'-dATP], on CF II (hClp1-hPcf11) [1], the midpoint of the response, the EC50, lay at 46.3 ± 7.4 µM.

In the case of `Nc1ncnc2c1ncn2[C@@H]1O[C@H](COP(=O)(O)OP(=O)(O)OP(=O)(O)O)[C@@H](O)[C@H]1O` [ATP], the EC50 is 0.5 ± 0.1 µM on CF II (hClp1-hPcf11) [2], 95.9 ± 19.8 µM on CF II (hClp1-hPcf11) [3], 5.7 ± 3.4 µM at CF II (hClp1-hPcf11) [4] and 10.9 ± 2.7 µM on CF II (hClp1-hPcf11) [5].
